This assay concerns the target T1, human renin (Homo sapiens, UniProt P00797).
T1 construct: A human plasma pool is used as the source of both the substrate (angiotensinogen) and the enzyme (renin); from tissue; host or cells: human plasma pool
T1 sequence (P00797 67-406): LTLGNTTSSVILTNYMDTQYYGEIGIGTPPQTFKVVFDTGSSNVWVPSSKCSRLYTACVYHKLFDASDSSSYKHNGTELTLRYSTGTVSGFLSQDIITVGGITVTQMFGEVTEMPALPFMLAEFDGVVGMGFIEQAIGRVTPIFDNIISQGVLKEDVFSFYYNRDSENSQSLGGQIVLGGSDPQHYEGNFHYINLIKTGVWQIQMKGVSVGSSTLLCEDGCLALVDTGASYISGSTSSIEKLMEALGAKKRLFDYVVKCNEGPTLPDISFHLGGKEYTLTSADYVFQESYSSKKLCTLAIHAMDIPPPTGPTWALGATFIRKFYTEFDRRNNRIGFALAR
In words: Plasma renin assay (inhibition of human renin, angiotensin I by RIA). Format: biochemical. Conditions: human plasma pool, pH 6.0, 2 h incubation at 37°. The essentials: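 Pooled human plasma supplies both renin and angiotensinogen; inhibitor in MES/1% HSA buffer (1% DMSO final) incubated 2 h at 37° at pH 6.0. Angiotensin I generated quantified by radioimmunoassay, inhibition relative to no-inhibitor control, IC50 by nonlinear regression.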
`CC(C)C[C@H](O)[C@H](O)[C@H](CC1CCCCC1)NC(=O)[C@@H](CC(=O)N(CC(=O)N1CCOCC1)Cc1ccccc1)CC1CC1` [Compound 1, N^4-benzyl-N^4-(2-morpholino-2-oxoethyl)-N^1-[1(S)-(cyclohexylmethyl)-2(R),3(S)-dihydroxy-5-methylhexyl]-2(R)-(cyclopropylmethyl)butanediamide] gave a half-maximal inhibitory concentration (IC50) of 94 nM.
In the case of `CC(C)C[C@H](O)[C@H](O)[C@H](CC1CCCCC1)NC(=O)[C@@H](CC(=O)N(CC(=O)N(C)CCc1ccccn1)[C@@H](C)C1CCCCC1)Cc1csc(N)n1` [Compound 63, N^4-[1(S)-cyclohexylethyl]-N^4 -{2-{methyl[2-(2-pyridinyl)ethyl]-amino}-2-oxoethyl}-N^1-[1(S)-(cyclohexylmethyl)-2(R),3(S)-dihydroxy-5-methylhexyl]-2(R)-[(2-amino-4-thiazolyl)methyl]butanediamide] it was 1 nM; in that of `CC(C)C[C@H](O)[C@H](O)[C@H](CC1CCCCC1)NC(=O)[C@@H](CC(=O)N(CC(=O)N(C)CCN(C)C)[C@@H](C)c1ccccc1)CC1CC1` [Compound 23, N^4 -{2-{[2-(dimethylamino)ethyl]methylamino}-2-oxoethyl}-N^4-[1(S)-phenylethyl]-N^1-[1(S)-(cyclohexylmethyl)-2(R),3(S)-dihydroxy-5-methylhexyl]-2(R)-(cyclopropylmethyl)-butanediamide], 26 nM.
The same measure for `CC(C)C[C@H](O)[C@H](O)[C@H](CC1CCCCC1)NC(=O)[C@@H](CC(=O)N(CC(=O)N(C)C)CC1CCCCCC1)Cc1cccnc1` [Compound 70, N^4-(cycloheptylmethyl)-N^4-[2-(dimethylamino)-2-oxoethyl]-N^1-[1(S)-(cyclohexylmethyl)-2(R),3(S)-dihydroxy-5-methylhexyl]-2(R)-(3-pyridinylmethyl)butanediamide]: 7 nM; for `CC(C)C[C@H](O)[C@H](O)[C@H](CC1CCCCC1)NC(=O)[C@@H](CC(=O)N(CC(=O)N1CCOCC1)CC1CCCCC1)CC1CC1` [Compound 35, N^4-(cyclohexylmethyl)-N^4-(2-morpholino-2-oxoethyl)-N^1-[1(S)-(cyclohexylmethyl)-2(R),3(S)-dihydroxy-5-methylhexyl]-2(R)-(cyclopropylmethyl)butanediamide]: 8 nM; for `CC(C)C[C@H](O)[C@H](O)[C@H](CC1CCCCC1)NC(=O)[C@@H](CC(=O)N(CC(=O)N(C)C)Cc1cccnc1)CC1CC1` [Compound 14, N^4-[2-(dimethylamino)-2-oxoethyl]-N^4-(3-pyridinylmethyl)-N^1-[1(S)-(cyclohexylmethyl)-2(R),3(S)-dihydroxy-5-methylhexyl]-2(R)-(cyclopropylmethyl)butanediamide]: 350 nM.
In the case of `CC(C)CC[C@H](O)[C@H](CC1CCCCC1)NC(=O)[C@@H](CC(=O)N(CC(=O)N(C)CCc1ccccn1)CC1CCCCC1)Cc1csc(N)n1` [Compound 77, N^4-(cyclohexylmethyl)-N^4 -{2-{methyl[2-(2-pyridinyl)ethyl]-amino}-2-oxoethyl}-N^1-[1(S)-(cyclohexylmethyl)-2(S)-hydroxy-5-methylhexyl]-2(R)-[(2-amino-4-thiazolyl)methyl]butanediamide] it was 36 nM; in that of `CC(C)C[C@H](O)[C@H](O)[C@H](CC1CCCCC1)NC(=O)[C@@H](CC(=O)N(CC(=O)N(C)CCc1cccnc1)CC1CCCCC1)Cc1csc(N)n1` [Compound 76, N^4-(cyclohexylmethyl)-N^4 -{2-{methyl[2-(3-pyridinyl)ethyl]-amino}-2-oxoethyl}-N^1-[1(S)-(cyclohexylmethyl)-2(R),3(S)-dihydroxy-5-methylhexyl]-2(R)-[(2-amino-4-thiazolyl)methyl]butanediamide], 0.4 nM.
`CC(C)C[C@H](O)[C@H](O)[C@H](CC1CCCCC1)NC(=O)[C@@H](CC(=O)N(CC(=O)N(C)CCc1ccccn1)Cc1ccccc1)CC1CC1` [Compound 12, N^4-benzyl-N^4 -{2-{methyl[2-(2-pyridinyl)ethyl]amino}-2-oxoethyl}-N^1-[1(S)-(cyclohexylmethyl)-2(R),3(S)-dihydroxy-5-methylhexyl]-2(R)-(cyclopropylmethyl)butanediamide] displayed a 50% inhibitory concentration (IC50) of 34 nM.
In turn, `CC(C)C[C@H](O)[C@H](O)[C@H](CC1CCCCC1)NC(=O)[C@@H](CC(=O)N(CC(=O)N(C)CCc1ccccn1)[C@@H](C)c1ccccc1)CC1CC1` [Compound 22, N^4-[1(S)-phenylethyl]-N^4 -{2-{methyl[2-(2-pyridinyl)ethyl]-amino}-2-oxoethyl}-N^1-(1(S)-(cyclohexylmethyl)-2(R),3(S)-dihydroxy-5-methylhexyl]-2(R)-(cyclopropylmethyl)-butanediamide] gave a half-maximal inhibitory concentration (IC50) of 20 nM.
Consider `CON(C)C(=O)CN(Cc1ccccc1)C(=O)C[C@@H](CC1CC1)C(=O)N[C@@H](CC1CCCCC1)[C@@H](O)[C@@H](O)CC(C)C` [Compound 8, N^4-benzyl-N^4 -{2-[(methoxy)methylamino]-2-oxoethyl}-N^1-[1(S)-(cyclohexylmethyl)-2(R),3(S)-dihydroxy-5-methylhexyl]-2(R)-(cyclopropylmethyl)butanediamide], for which 66 nM corresponded to half-maximal inhibition (IC50).
The same measure for `CC(C)C[C@H](O)[C@H](O)[C@H](CC1CCCCC1)NC(=O)[C@@H](CC(=O)N(CC(=O)N(C)C)CC1CCCC1)Cc1cccnc1` [Compound 69, N^4-(cyclopentylmethyl)-N^4-[2-(dimethylamino)-2-oxoethyl]-N^1-[1(S)-(cyclohexylmethyl)-2(R),3(S)-dihydroxy-5-methylhexyl]-2(R)-(3-pyridinylmethyl)butanediamide]: 32 nM; for `CC(C)C[C@H](O)[C@H](O)[C@H](CC1CCCCC1)NC(=O)[C@@H](CC(=O)N(CC(=O)N(C)C)C[C@@H](C)c1ccccc1)Cc1nccs1` [Compound 40, N^4-[2-(dimethylamino)-2-oxoethyl]-N^4-[2 (S)-phenylpropyl]-N^1-[1(S)-(cyclohexylmethyl)-2(R),3(S)-dihydroxy-5-methylhexyl]-2(S)-(2-thiazolylmethyl)butanediamide]: 6.7 nM.
In the case of `CC(C)OC(=O)[C@H](O)[C@H](CC1CCCCC1)NC(=O)[C@@H](CC(=O)N(CC(=O)N(C)CCc1ccccn1)CC1CCCCC1)Cc1csc(N)n1` [Compound 74, N^4-(cyclohexylmethyl)-N^4 -{2-{methyl-[2-(2-pyridinyl)ethyl]amino}-2-oxoethyl}-N^1-[1(S)-(cyclohexylmethyl)-2(R)-hydroxy-3-(1-methylethoxy)-3-oxopropyl]-2(R)-[(2-amino-4-thiazolyl)methyl]butanediamide] it was 18 nM; in that of `CC(C)C[C@H](O)[C@H](O)[C@H](CC1CCCCC1)NC(=O)[C@@H](CC(=O)N(CC(=O)N(C)C)[C@@H](C)c1ccccc1)Cc1nccs1` [Compound 54, N^4-[2-(dimethylamino)-2-oxoethyl]-N^4-[1(S)-phenylethyl]-N^1-[1(S)-(cyclohexylmethyl)-2(R),3(S)-dihydroxy-5-methylhexyl]-2(S)-(2-thiazolylmethyl)butanediamide], 4 nM; in that of `CC(C)C[C@H](O)[C@H](O)[C@H](CC1CCCCC1)NC(=O)[C@@H](CC(=O)N(CC(=O)N(C)C)CC1CCCCCC1)Cc1csc(N)n1` [Compound 78, N^4-(cycloheptylmethyl)-N^4-[2-(dimethylamino)-2-oxoethyl]-N^1-[1(S)-(cyclohexylmethyl)-2(R),3(S)-dihydroxy-5-methylhexyl]-2(R)-[(2-amino-4-thiazolyl)methyl]butanediamide], 0.6 nM.

Usually IC50 stands for the concentration at which inhibition is half-maximal.

The record behind these values is patent US5541163A, “Renin inhibiting N-(2-amino-2-oxoethyl)butanediamide derivatives” (Bio-Mega/Boehringer Ingelheim Research Inc., priority 1993, dated 1996).
